Experimental data from the supplement of paper PMC11061612.

Assays:
Assay in all cases: combination Emax (second highest fraction inhibited in the dose matrix, 72 h); higher = more inhibition; extreme values may be limits of the assay
[1] = test system: EoL-1-cell (Acute Myeloid Leukemia)
Outline: (§1)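 Cell lines grown in DMEM/F12 or RPMI with 10% FBS were plated in 1536-well plates and held 24 hours at 37°C, 5% CO2 before 72 hours of exposure to two-drug dose matrices, with DMSO typically at 0.2%. CellTiter-Glo 2.0 luminescence gave viability, which was converted to inhibition. Vehicle wells were set to 0 and blank wells to 1. Combination Emax is the second-highest inhibition in the matrix, and Bliss excess is the observed combination effect minus the expected EA + EB − EA·EB, where EA and EB are the single-agent effects.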

[2] = test system: AMO-1 (Plasma Cell Myeloma)
Outline: as §1

[3] = test system: SW13 (Other Solid Carcinomas)
Outline: as §1

[4] = test system: Ca9-22 (Head and Neck Carcinoma)
Outline: as §1

[5] = test system: TK10 (Kidney Carcinoma)
Outline: as §1

[6] = test system: EFM-19 (Breast Carcinoma)
Outline: as §1

[7] = test system: UACC-62 (Melanoma)
Outline: as §1

[8] = test system: KARPAS-299 (T-Cell Non-Hodgkin's Lymphoma)
Outline: as §1

[9] = test system: Hs-766T (Pancreatic Carcinoma)
Outline: as §1

[10] = test system: Caov-4 (Ovarian Carcinoma)
Outline: as §1

[11] = test system: YH-13 (Glioblastoma)
Outline: as §1

[12] = test system: NCI-H358 (Lung Adenocarcinoma)
Outline: as §1

[13] = test system: NB69 (Neuroblastoma)
Outline: as §1

[14] = test system: NCI-H727 (Other Solid Carcinomas)
Outline: as §1

[15] = test system: BT-549 (Breast Carcinoma)
Outline: as §1

[16] = test system: MLMA (Other Blood Carcinomas)
Outline: as §1

[17] = test system: TGW (Neuroblastoma)
Outline: as §1

[18] = test system: D-263MG (Glioblastoma)
Outline: as §1

[19] = test system: LU-65 (Non-Small Cell Lung Carcinoma)
Outline: as §1

[20] = test system: MIA-PaCa-2 (Pancreatic Carcinoma)
Outline: as §1

SMILES | combination Emax [1] | combination Emax [2] | combination Emax [3] | combination Emax [4] | combination Emax [5] | combination Emax [6] | combination Emax [7] | combination Emax [8] | combination Emax [9] | combination Emax [10] | combination Emax [11] | combination Emax [12] | combination Emax [13] | combination Emax [14] | combination Emax [15] | combination Emax [16] | combination Emax [17] | combination Emax [18] | combination Emax [19] | combination Emax [20]
N#Cc1cnc(Nc2cc(NC[C@H]3CNCCO3)c(C(F)(F)F)cn2)cn1 [SRA737] + O=c1[nH]cc(F)c(=O)[nH]1 [5-Fluorouracil] (first compound max 10 µM, 7x7, partner max 20 µM) | 0.994 | 0.882 | 0.0967 | 0.606 | 0.551 | 0.355 | 0.098 | 0.996 | 0.405 | 0.749 | 0.542 | 0.631 | 0.805 | 0.428 | 0.711 | 0.77 | 0.693 | 0.35 | 0.778 | 0.252
N#Cc1cnc(Nc2cc(NC[C@H]3CNCCO3)c(C(F)(F)F)cn2)cn1 [SRA737] + CCc1c2c(nc3ccc(O)cc13)-c1cc3c(c(=O)n1C2)COC(=O)[C@]3(O)CC [SN-38] (first compound max 10 µM, 7x7, partner max 0.3 µM) | 0.994 | 0.967 | 0.948 | 0.954 | 0.682 | 0.689 | 0.664 | 0.999 | 0.631 | 0.9 | 0.832 | 0.8 | 0.991 | 0.609 | 0.75 | 0.77 | 0.714 | 0.823 | 0.906 | 0.942
CN(CCO)CC[C@H](CSc1ccccc1)Nc1ccc(S(=O)(=O)NC(=O)c2ccc(N3CCC([C@@H](O)c4ccccc4-c4ccc(Cl)cc4)CC3)cc2)cc1S(=O)(=O)C(F)(F)F [AZD4320] + CCN(CCO)CCCOc1ccc2c(Nc3cc(CC(=O)Nc4cccc(F)c4)[nH]n3)ncnc2c1 [AZD2811] (first compound max 1 µM, 7x7, partner max 1 µM) | 1 | 0.291 | 0.378 | 0.572 | 0.439 | 0.932 | 0.201 | 0.191 | 0.171 | 0.448 | 0.704 | 0.269 | 0.902 | 0.512 | 0.432 | 0.228 | 0.928 | 0.653 | 0.432 | 0.512
CN(CCO)CC[C@H](CSc1ccccc1)Nc1ccc(S(=O)(=O)NC(=O)c2ccc(N3CCC([C@@H](O)c4ccccc4-c4ccc(Cl)cc4)CC3)cc2)cc1S(=O)(=O)C(F)(F)F [AZD4320] + Nc1ccn([C@@H]2O[C@H](CO)[C@@H](O)C2(F)F)c(=O)n1 [Gemcitabine] (first compound max 1 µM, 7x7, partner max 0.3 µM) | 1 | 0.953 | 0.927 | 0.927 | 0.301 | 0.702 | 0.72 | 0.812 | 0.311 | 0.685 | 0.852 | 0.396 | 0.997 | 0.634 | 0.199 | 0.896 | 0.934 | 0.363 | 0.492 | 0.771
COc1cc2ncnc(Nc3ccc(F)c(Cl)c3)c2cc1OCCCN1CCOCC1 [Gefitinib] + CC(C)n1c(=O)n(C)c2cnc3cc(F)c(-c4ccc(OCCCN5CCCCC5)nc4)cc3c21 [AZD1390] (first compound max 10 µM, 7x7, partner max 0.3 µM) | 0.571 | 0.323 | 0.724 | 0.625 | 0.445 | 0.158 | 0.248 | 0.14 | 0.181 | 0.171 | 0.145 | 0.536 | 0.369 | 0.157 | 0.0893 | 0.33 | 0.0238 | 0.132 | 0.268 | 0.208
COc1cc2c(cc1OCCCCCOc1cc3c(cc1OC)C(=O)N1C=C(C)C[C@H]1C=N3)N=C[C@@H]1CC(C)=CN1C2=O [SG3199] + O=C(c1cc(Cc2n[nH]c(=O)c3ccccc23)ccc1F)N1CCN(C(=O)C2CC2)CC1 [Olaparib] (first compound max 0.001 µM, 7x7, partner max 10 µM) | 0.319 | 0.0932 | 0.0899 | 0.0924 | 0.0517 | 0.171 | 0.0735 | 0.0832 | 0.0914 | 0.165 | 0.16 | 0.0868 | 0.444 | 0.24 | 0.095 | 0.164 | 0.166 | 0.0915 | 0.24 | 0.168
Cc1cc2ncnn2cc1Nc1ncc2c(n1)n(C1CCOCC1)c(=O)n2C [AZD7648] + C[C@@H]1COCCN1C2=NC(=NC(=C2)C3(CC3)[S@](=N)(=O)C)C4=C5C=CNC5=NC=C4 [AZD6738] (first compound max 10 µM, 7x7, partner max 10 µM) | 0.967 | 0.862 | 0.499 | 0.919 | 0.753 | 0.541 | 0.624 | 0.927 | 0.636 | 0.916 | 0.656 | 0.606 | 0.865 | 0.545 | 0.441 | 0.67 | 0.739 | 0.647 | 0.656 | 0.592
CN(CCO)CC[C@H](CSc1ccccc1)Nc1ccc(S(=O)(=O)NC(=O)c2ccc(N3CCC([C@@H](O)c4ccccc4-c4ccc(Cl)cc4)CC3)cc2)cc1S(=O)(=O)C(F)(F)F [AZD4320] + C=CCn1c(=O)c2cnc(Nc3ccc(N4CCN(C)CC4)cc3)nc2n1-c1cccc(C(C)(C)O)n1 [AZD1775] (first compound max 1 µM, partner max 1 µM) | 1 | 0.732 | 0.167 | 0.851 | 0.571 | 0.716 | 0.71 | 0.938 | 0.398 | 0.857 | 0.449 | 0.498 | 0.952 | 0.515 | 0.751 | 0.994 | 1 | 0.381 | 0.763 | 0.6
CN(CCO)CC[C@H](CSc1ccccc1)Nc1ccc(S(=O)(=O)NC(=O)c2ccc(N3CCC([C@@H](O)c4ccccc4-c4ccc(Cl)cc4)CC3)cc2)cc1S(=O)(=O)C(F)(F)F [AZD4320] + Cn1cnc2c(F)c(Nc3ccc(Br)cc3Cl)c(C(=O)NOCCO)cc21 [Selumetinib] (first compound max 1 µM, 7x7, partner max 3 µM) | 1 | 0.418 | 0.544 | 0.593 | 0.402 | 0.753 | 0.868 | 0.307 | 0.57 | 0.617 | 0.511 | 0.564 | 0.998 | 0.973 | 0.327 | 0.496 | 0.97 | 0.237 | 0.753 | 0.61
CN(CCO)CC[C@H](CSc1ccccc1)Nc1ccc(S(=O)(=O)NC(=O)c2ccc(N3CCC([C@@H](O)c4ccccc4-c4ccc(Cl)cc4)CC3)cc2)cc1S(=O)(=O)C(F)(F)F [AZD4320] + C1CN(CCC1(C(=O)N[C@@H](CCO)C2=CC=C(C=C2)Cl)N)C3=NC=NC4=C3C=CN4 [Capivasertib] (first compound max 1 µM, 7x7, partner max 3 µM) | 1 | 0.317 | 0.138 | 0.301 | 0.39 | 0.87 | 0.341 | 0.0749 | 0.204 | 0.131 | 0.266 | 0.273 | 0.652 | 0.484 | 0.294 | 0.384 | 0.924 | 0.0907 | 0.612 | 0.133
CN(CCO)CC[C@H](CSc1ccccc1)Nc1ccc(S(=O)(=O)NC(=O)c2ccc(N3CCC([C@@H](O)c4ccccc4-c4ccc(Cl)cc4)CC3)cc2)cc1S(=O)(=O)C(F)(F)F [AZD4320] + CC(=O)O[C@H]1C(=O)[C@@]2(C)[C@H]([C@H](OC(=O)c3ccccc3)[C@]3(O)C[C@H](OC(=O)[C@H](O)[C@@H](NC(=O)c4ccccc4)c4ccccc4)C(C)=C1C3(C)C)[C@]1(OC(C)=O)CO[C@@H]1C[C@@H]2O [Paclitaxel] (first compound max 1 µM, 7x7, partner max 3 µM) | 1 | 1 | 1 | 0.997 | 0.821 | 1 | 0.808 | 0.837 | 0.436 | 0.795 | 1 | 0.916 | 1 | 0.82 | 0.853 |  | 1 | 0.95 | 0.951 | 0.898
CN(CCO)CC[C@H](CSc1ccccc1)Nc1ccc(S(=O)(=O)NC(=O)c2ccc(N3CCC([C@@H](O)c4ccccc4-c4ccc(Cl)cc4)CC3)cc2)cc1S(=O)(=O)C(F)(F)F [AZD4320] + Cc1cc2ncnn2cc1Nc1ncc2c(n1)n(C1CCOCC1)c(=O)n2C [AZD7648] (first compound max 1 µM, 7x7, partner max 10 µM) | 1 | 0.216 | 0.193 | 0.163 | 0.444 | 0.735 | 0.248 | 0.221 | 0.405 |  | 0.227 | 0.186 | 0.801 | 0.198 | 0.178 | 0.474 | 0.979 | 0.108 | 0.494 | 0.178
